Experiments:
AML-3 patients = details: oral, alone; cited from earlier work
HUMAN LEIOMYOMA CELLS = assay: Leiomyoma cell proliferation and viability, day 7 cell counts with Trypan Blue stain; type: cell-based; design: RECENT CELLS LEIOMYOMA: unit not given here; details: for RECENT CELLS LEIOMYOMA: day 7 (control 0.0 MG: 9.0)
Protocol: Leiomyoma tissues were obtained from several premenopausal women with symptomatic uterine fibroids at elective hysterectomy, and who were not receiving any hormonal or other drug therapy. The fibroid tissues were minced into 1 - 2 mm\# explants and placed in suitable DMEM supplemented with 10% bovine serum. The fibroid tissue was digested for 14 -18 hours at 37 degrees C in an incubator. After centrifugation, a resulting cell pellet was resuspended in DMEM and then placed in culture flasks.
Leiomyoma cells were plated in 100mm dishes (100,000 each dish) and allowed to attach overnight in DMEM plus 10% fetal bovine serum until they reached 80-90% confluence.

[1] = test system: human T-cell leukemia (JURKAT) cells; assay: Inhibition of proliferation of JURKAT cells, MTS assay; type: cell-based; details: 900 mcg/ml, 72 hours, statistically significant, read-out: reduction in number of cell which were active
Protocol: (§1) To determine the inhibitory effect of pirfenidone concentrations on human T-cell leukemia (JURKAT), a MTS assay was used which incorporates a tetrazolium dye that measures the cellular conversion of the dye into a formazan product by the activation of NADH-generating dehydrogenases found in metabolically active cells. Procedure: • 1. 100 microl. of cells was seeded into 96 well plates at 1X10^5 cells/ml in media containing 100 mcg/ml, 300 mcg/ml and 900 mcg/ml of pirfenidone, as well as a pirfenidone-free media control. • 2. Cells were incubated at 37 degrees C, at 5.0% CO2 for 72 hours. • 3. After incubation a standard curve was made of 100 microliters of cells added to the plate at 5X10^5 cells/ml making 1:2 dilutions all the way down to a pre-set degree of dilution. • 4. 2.0 mls of the MTS solution was mixed with a 100 microliter of the PMS solution, and 20 microliters of this combined dye solution was added to each well and incubated at 37 degrees C, 5.0% CO2 for 3 hours. • 5. Subsequently the absorbance was read at 490 nm.

[2] = test system: human Burkitt's lymphoma (RAJI) cells; assay: Inhibition of proliferation of RAJI cells, MTS assay; type: cell-based; details: 900 mcg/ml, 72 hours, statistically significant, read-out: reduction in number of cells which were active
Protocol: To determine the inhibitory effect of pirfenidone concentrations on Burkitt's lymphoma (RAJI) cells, a MTS assay was used which incorporates a tetrazolium dye that measures the cellular conversion of the dye into a formazan product by the activation of NADH-generating dehydrogenases found in metabolically active cells.
as §1, with “•” for “To determine the inhibitory effect of pirfenidone concentrations on human T-cell leukemia (JURKAT), a MTS assay was used which incorporates a tetrazolium dye that measures the cellular conversion of the dye into a formazan product by the activation of NADH-generating dehydrogenases found in metabolically active cells. Procedure: •”

[3] = test system: human pro-myelocytic leukemia (HL-60 cells); assay: Inhibition of proliferation of HL-60 cells, Trypan Blue cell counts; type: cell-based; details: 1400 micrograms/ml
Text: […] Five ml of each pirfenidone concentration, and of the control were placed into a T25 tissue culture flask along with 1X10^5 cells. Every day for 4 days an aliquote from each flask was taken out, then stained with Trypan Blue, and counts were repeated three times on each aliquote.

Row | SMILES | clinical outcome (AML-3 patients) | RECENT CELLS LEIOMYOMA (HUMAN LEIOMYOMA CELLS; 0.01 MG/ML) | RECENT CELLS LEIOMYOMA (HUMAN LEIOMYOMA CELLS; 0.1 MG/ML) | RECENT CELLS LEIOMYOMA (HUMAN LEIOMYOMA CELLS; 0.3 MG/ML) | RECENT CELLS LEIOMYOMA (HUMAN LEIOMYOMA CELLS; 1.0 MG/ML) | cytotoxicity at 1000 µg/mL (HUMAN LEIOMYOMA CELLS; Homo sapiens, 168 h, read-out: percentage of dead leiomyoma cells) | inhibitory effect on proliferation (HUMAN LEIOMYOMA CELLS; graded concentrations in the culture media, 7 days) | inhibition at 900 µg/mL [1] | inhibition at 900 µg/mL [2] | Inhibition of proliferation as well as deaths of cells [3]
1 | CC1=C(/C=C/C(C)=C/C=C/C(C)=C/C(=O)O)C(C)(C)CCC1 [All-trans-retinoic acid] | complete remission |  |  |  |  |  |  |  |  | 
2 | Cc1ccc(=O)n(-c2ccccc2)c1 [pirfenidone] |  | 8.0 | 10.0 | 6.0 | 16.0 | 16% | significant inhibitory effect | 75% | 45% | deaths of almost all cells

From patent EP1242084B1, “TREATMENT OF BREAST CARCINOMAS, ASTROCYTOMAS, MELANOMAS AND RELATED TUMORS” (priority 2000, dated 2001)
